Tested on: anti-aldicarb monoclonal antibody
Assay: icELISA cross-reaction test of the monoclonal antibody
Assay type: binding, mouse
Settings: for Cross-reaction rate: IC50 of aldicarb relative to IC50 of inhibitor; for IC50: icELISA, inhibitor against anti-aldicarb monoclonal antibody
From the text: A mouse monoclonal antibody subtype identification ELISA kit was used to identify the antibody subtype. Indirect competitive ELISA (icELISA) was used to determine the 50% inhibitory mass concentration (IC50) of the monoclonal antibody against aldicarb, and IC50 was used to measure the sensitivity of the monoclonal antibody ([28]). Cross-reaction tests were used to determine specificity, in which aldicarb sulfone, aldicarb sulfoxide, thiofanox, oxamyl, methomyl, metolcarb, isoprocarb, and carbofuran were selected as inhibitors. The IC50 of each inhibitor was determined by icELISA, and the IC50 of the monoclonal antibody against aldicarb and the IC50 of the inhibitor were taken as the cross-reaction rate.
Antibody specificity is the ability of the antibody to bind to a specific antigen in preference over antigen analogs. The cross-reactivity rate is often used as an evaluation standard because an inverse relationship exists between the cross-reactivity rate and the specificity of the antibody. In this study, we selected aldicarb sulfone, aldicarb sulfoxide, thiofanox, oxamyl, methomyl, metolcarb, isoprocarb, and carbofuran, with chemical structures similar to that of aldicarb, for the specificity analysis.

`CNC(=O)O/N=C/C(C)(C)S(C)(=O)=O` [Aldicarb sulfone] gave a Cross-reaction rate of less than 0.978%, a Cross-reaction rate (listed as aldicarb sulfone) of less than 1% and an IC50 greater than 0.042 µg/mL.
With `CNC(=O)O/N=C/C(C)(C)[S+](C)[O-]` (stereo not shown) [Aldicarb sulfoxide] the Cross-reaction rate was less than 0.978%, the Cross-reaction rate (listed as aldicarb sulfoxide) was less than 1% and the IC50 was greater than 0.042 µg/mL.
`CNC(=O)O/N=C/C(C)(C)SC` [Aldicarb, [(E)-(2-methyl-2-methylsulfanylpropylidene)amino]N-methylcarbamate] was tested, and the Cross-reaction rate was 100%.
`CNC(=O)Oc1cccc2c1OC(C)(C)C2` [Carbofuran] showed a Cross-reaction rate of less than 0.978%, a Cross-reaction rate (listed as carbofuran) of less than 1% and an IC50 greater than 0.042 µg/mL.
With `CNC(=O)Oc1ccccc1C(C)C` [Isoprocarb] the Cross-reaction rate was less than 0.978%, the Cross-reaction rate (listed as isoprocarb) was less than 1% and the IC50 was greater than 0.042 µg/mL.
`CNC(=O)ON=C(C)SC` [Methomyl] gave a Cross-reaction rate of less than 0.978%, a Cross-reaction rate (listed as methomyl) of less than 1% and an IC50 greater than 0.042 µg/mL.
Work on `CNC(=O)Oc1cccc(C)c1` [Metolcarb] yielded a Cross-reaction rate of less than 0.978%, a Cross-reaction rate (listed as metolcarb) of less than 1% and an IC50 greater than 0.042 µg/mL.
`CNC(=O)O/N=C(\SC)C(=O)N(C)C` [Oxamyl] gave a Cross-reaction rate of less than 0.978%, a Cross-reaction rate (listed as oxamyl) of less than 1% and an IC50 greater than 0.042 µg/mL.
`CNC(=O)ON=C(CSC)C(C)(C)C` [Thiofanox] showed a Cross-reaction rate of less than 0.978%, a Cross-reaction rate (listed as thiofanox) of less than 1% and an IC50 greater than 0.042 µg/mL.

— PMC9446148, “Hapten designs based on aldicarb for the development of a colloidal gold immunochromatographic quantitative test strip” (Frontiers in Nutrition, 2022)
